≈ marks a conversion by molar mass, not a printed value. Where two headings read alike, the source gives them in different places.
What was measured:
P. aeruginosa PBP3 = molecular target: T1, P. aeruginosa PBP3 (Pseudomonas aeruginosa, UniProt G3XD46); test: Bocillin-FL fluorescence polarization competition binding assay, P. aeruginosa PBP3; conditions: fluorescence polarization competition binding assay using Bocillin-FL
T1 construct: made in house
Description: (§1) Example I: Experimental Method for Penicillin-Binding Protein Binding Assays with Bocillin-FL Via Fluorescence Polarization
(§2) To determine the ability of boronic acid-based test PBP inhibitors to bind Penicillin Binding Proteins (PBPs), Bocillin-FL (fluorescently-labeled penicillin V; ThermoFisher Scientific) was used in a fluorescence polarization (FP) competition binding assay to assess inhibitor binding to PBP2, PBP3 or PBP4 from Escherichia coli (K12), PBP3 from Pseudomonas aeruginosa (PA01), PBP1a, PBP2 and PBP3 from Acinetobacter baumannii (ATCC 19606), and PBP2 from Neiserria gonorrheae (FA19). PBPs were cloned and purified as described previously (E. coli PBPs, King, D. T, et al., ACS Infectious Diseases 2015, 1, 175-184; P. aeruginosa PBP3, Han et. al., PNAS 2010, 107 (51), 22002-22007; A. baumannii PBPs, Penwell et. al., Antimicrob. Agents Chemother. 2015, 59 (3), 1680-1689; N. gonorrhoeae PBP2, Singh et. al., J Biol. Chem. 2019, 294 (38), 14020-14032). To establish assay conditions for competition binding, enzyme titration/saturation binding experiments were initially performed. Bocillin-FL was prepared at 0.2 μM in a buffer comprised of 50 mM Hepes (pH 8.0), 300 mM NaCl and 5% (v/v) glycerol for reactions with E. coli, P. aeruginosa and N. gonorrhoeae PBPs, and 25 mM Tris (pH 8.0), 200 mM NaCl and 10% (v/v) glycerol and 0.005% (v/v) Tween 20 for reactions with A. baumannii PBPs. Saturation binding was performed by mixing 40 μl of PBP solutions ranging in concentrations from 0-24 μM with 40 μl of the 0.2 μM Bocillin-FL solution, in individual wells of a black 384-well microplate. FP was measured immediately upon mixing (Excitation, 490 nm; Emission, 520 nm; g-factor, 0.96), using a Cytation3 (BioTek) microplate reader and measured continuously for up to 120 minutes. […] The competition binding assay (80 μl final volume) was validated using beta-lactams and PBPs at final concentrations of: 1.5 μM, E. coli PBP3; 0.75 μM, P. aeruginosa PBP3; 1 μM A. baumannii PBP1a; 2.5 μM A. baumannii PBP2; 0.2 μM A. baumannii PBP3; and […] N. gonorrhoeae PBP2. Bocillin-FL was at 0.1 μM (0.05 μM with A. baumannii PBP1a) and beta-lactam concentrations ranged from 0-1000 μM. […] Bocillin-FL was added and the FP immediately measured for up to 60 minutes (90 minutes for E. coli PBP2). […] The beta-lactam potency was reported as the concentration of beta-lactam required to reduce the amount of PBP bound-Bocillin-FL by 50% (EC50). […] Binding assays for boronic acid PBP inhibitors were performed in an identical fashion for the respective PBPs

P. aeruginosa ATCC 35151 = test: Broth microdilution MIC in CAMHB; format: cell-based; conditions: Pseudomonas aeruginosa, ATCC35151; MHB; hyper-permeable strain; read-out: Minimum Inhibitory Concentration, P. aeruginosa ATCC 35151
Method: (§3) Example III: In Vitro Antibacterial Assays
(§4) To determine the ability of test compounds to inhibit the growth of bacterial strains, classic cell based broth microdilution minimum inhibitory concentration (MIC) assays were employed. MIC assays are performed according to CLSI methods except where otherwise noted (CLSI, 2018 and CLSI, 2019). The reference type strain E. coli ATCC 25922; the wild-type parent strain E. coli AG100; the hyper-permeable E. coli 901C and E. coli D22; and the E. coli AG100A strain lacking the acrAB efflux pump encoding genes were used to determine the ability of the PBP inhibitors to penetrate the outer membrane of gram-negative bacteria and inhibit bacterial growth. […] The P. aeruginosa ATCC 27853 and A. baumannii ATCC 19606, along with the hyper-permeable P. aeruginosa ATCC 35151 and an engineered efflux pump-compromised strain of P. aeruginosa (ΔmexAB-oprM) were used to determine the ability of PBP inhibitors to penetrate the outer membrane of P. aeruginosa and A. baumannii and assess antibacterial activity against these important gram-negative organisms.
(§5) Briefly, cryo-preserved bacterial cultures of challenge strains are streaked for isolation on appropriate agar medium, in this case cation-adjusted Mueller Hinton agar. Following incubation to allow growth of the colonies, plates are sealed with parafilm and stored refrigerated for up to two weeks. For preparation of assay inoculum and to ensure low variability, at least 5 colonies are picked from the agar plates with an inoculating loop and aseptically transferred to a culture tube containing 3 mL of cation-adjusted Mueller Hinton broth (CAMHB). The broth culture is grown for 3-5 hours at 37° C. with shaking at 200 rpm. Meanwhile, 2-fold serial dilutions of test compounds are conducted in a 96-well plate with a final volume of 75 μL per well at 2-fold the final desired concentration. After the dilution plates are set up the growing cultures are then diluted in a cuvette containing CAMHB and the optical density is measured at 600 nm. The inoculum is diluted such that 75 μL of this culture in CAMHB results in a starting bacterial concentration of 2-8×10^5 CFU/mL when added to the dilution plates. The plates are incubated for 16-20 hours for Enterobacteriaceae and Pseudomonas and 20-24 hours for Acinetobacter at 37° C. The MIC values are read visually as the lowest concentration well with no bacterial growth.

[1] = system: P. aeruginosa (ΔmexAB-oprM); test: Broth microdilution MIC in CAMHB; format: cell-based; conditions: Pseudomonas aeruginosa, read-out: Minimum Inhibitory Concentration, P. aeruginosa ΔmexAB-OprM
Method: as §3, §4, §5

[2] = system: K. pneumoniae SI-117 producing VIM-1; test: Broth microdilution MIC in CAMHB; format: cell-based; conditions: Klebsiella pneumoniae, read-out: Minimum Inhibitory Concentration, K. pneumoniae SI-117
Method: as §3, §4, §5

[3] = system: K. pneumoniae UMM producing SHV-5 and KPC-2; test: Broth microdilution MIC in CAMHB; format: cell-based; conditions: Klebsiella pneumoniae, read-out: Minimum Inhibitory Concentration, K. pneumoniae UMM
Method: as §3, §4, §5

E. coli AG100 = test: Broth microdilution MIC in CAMHB; format: cell-based; conditions: Escherichia coli, MHB, read-out: Minimum Inhibitory Concentration, E. coli AG100
Method: as §3, §4, §5

A. baumannii ATCC 19606 = test: Broth microdilution MIC in CAMHB; format: cell-based; conditions: Acinetobacter baumannii, ATCC19606; MHB; read-out: Minimum Inhibitory Concentration, A. baumannii ATCC 19606
Method: as §3, §4, §5

P. aeruginosa ATCC 27853 = test: Broth microdilution MIC in CAMHB; format: cell-based; conditions: Pseudomonas aeruginosa, ATCC27853; MHB; read-out: Minimum Inhibitory Concentration, P. aeruginosa ATCC 27853
Method: as §3, §4, §5

E. coli AG100A = test: Broth microdilution MIC in CAMHB; format: cell-based; conditions: Escherichia coli, read-out: Minimum Inhibitory Concentration, E. coli AG100A
Method: as §3, §4, §5

[4] = system: K. pneumoniae 848844 producing SHV-11 and KPC-2; test: Broth microdilution MIC in CAMHB; format: cell-based; conditions: Klebsiella pneumoniae, read-out: Minimum Inhibitory Concentration, K. pneumoniae 848844
Method: as §3, §4, §5

E. coli ATCC 25922 = test: Broth microdilution MIC in CAMHB; format: cell-based
Method: as §3, §4, §5

E. coli 901C = test: Broth microdilution MIC in CAMHB; format: cell-based; conditions: Escherichia coli, MHB, read-out: Minimum Inhibitory Concentration, E. coli 901C
Method: as §3, §4, §5

E. coli D22 = test: Broth microdilution MIC in CAMHB; format: cell-based; conditions: Escherichia coli, MHB, read-out: Minimum Inhibitory Concentration, E. coli D22
Method: as §3, §4, §5

E. coli K12 PBP3 = molecular target: T2, E. coli K12 PBP3 (Escherichia coli, UniProt P0AD68); test: biochemical; format: binding
T2 construct: made in house
T2 sequence (P0AD68 1-577): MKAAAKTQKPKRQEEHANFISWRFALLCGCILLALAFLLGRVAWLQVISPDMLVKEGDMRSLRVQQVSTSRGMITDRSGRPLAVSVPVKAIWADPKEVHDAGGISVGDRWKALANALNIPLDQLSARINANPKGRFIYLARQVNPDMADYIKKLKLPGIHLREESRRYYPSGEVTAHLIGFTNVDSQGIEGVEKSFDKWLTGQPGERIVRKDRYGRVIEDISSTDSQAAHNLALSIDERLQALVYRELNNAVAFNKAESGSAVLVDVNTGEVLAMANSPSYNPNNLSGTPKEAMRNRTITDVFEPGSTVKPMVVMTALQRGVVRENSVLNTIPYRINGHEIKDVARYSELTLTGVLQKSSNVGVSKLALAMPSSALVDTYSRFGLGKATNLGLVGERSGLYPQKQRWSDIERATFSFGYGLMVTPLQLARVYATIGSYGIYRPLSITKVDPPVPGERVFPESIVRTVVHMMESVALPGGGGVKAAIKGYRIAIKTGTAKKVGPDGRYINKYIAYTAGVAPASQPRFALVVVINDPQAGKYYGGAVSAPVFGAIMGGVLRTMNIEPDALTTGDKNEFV
Description: as §1, §2

[5] = E. coli AG100 (wild-type parent)
[6] = Escherichia coli, ATCC25922; E. coli ATCC 25922; MHB; read-out: Minimum Inhibitory Concentration, E. coli 25922
[7] = wild-type parent strain E. coli AG100
[8] = Escherichia coli, ATCC25922; MHB; E. coli ATCC 25922; read-out: Minimum Inhibitory Concentration, E. coli 25922

T1 sequence (G3XD46 whole entry): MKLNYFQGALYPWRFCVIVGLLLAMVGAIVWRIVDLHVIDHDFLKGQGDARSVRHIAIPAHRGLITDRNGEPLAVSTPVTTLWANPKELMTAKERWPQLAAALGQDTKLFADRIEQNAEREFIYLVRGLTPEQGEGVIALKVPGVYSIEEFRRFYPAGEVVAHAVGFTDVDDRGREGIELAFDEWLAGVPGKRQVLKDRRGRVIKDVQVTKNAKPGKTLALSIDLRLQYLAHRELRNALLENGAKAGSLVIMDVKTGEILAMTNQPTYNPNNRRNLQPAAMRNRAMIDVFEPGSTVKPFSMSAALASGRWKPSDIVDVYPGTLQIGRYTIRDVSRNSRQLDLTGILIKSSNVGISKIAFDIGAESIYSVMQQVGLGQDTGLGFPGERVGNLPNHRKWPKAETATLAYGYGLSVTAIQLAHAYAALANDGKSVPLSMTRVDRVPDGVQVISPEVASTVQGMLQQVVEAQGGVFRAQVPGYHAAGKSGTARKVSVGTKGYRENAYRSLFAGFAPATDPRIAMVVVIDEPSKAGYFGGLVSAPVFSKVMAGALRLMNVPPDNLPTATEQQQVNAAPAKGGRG

Row | Structure (SMILES) | P. aeruginosa PBP3 Potency (P. aeruginosa PBP3) | MIC (P. aeruginosa ATCC 35151) [µg/mL] | MIC [1] [µg/mL] | MIC [2] [µg/mL] | MIC [3] [µg/mL] | MIC (E. coli AG100; [5]) [µg/mL] | MIC (A. baumannii ATCC 19606) [µg/mL] | MIC (P. aeruginosa ATCC 27853) [µg/mL] | MIC (E. coli AG100A) [µg/mL] | MIC [4] [µg/mL] | MIC (E. coli ATCC 25922; [6]) [µg/mL] | MIC (E. coli 901C; E. coli 901C (hyper-permeable)) [µg/mL] | MIC (E. coli D22; E. coli D22 (hyper-permeable)) [µg/mL] | EC50 (E. coli K12 PBP3) [µM] | MIC (E. coli AG100; [7]) [µg/mL] | MIC (E. coli ATCC 25922; [8]) [µg/mL] | MIC (E. coli 901C; hyper-permeable E. coli 901C) [µg/mL] | MIC (E. coli D22; hyper-permeable E. coli D22) [µg/mL]
1 | NS(=O)(=O)Nc1ccc(F)c([C@H](NC(=O)N2CCN(CC(F)(F)F)C(=O)C2=O)C(=O)N[C@H]2Cc3cccc(C(=O)O)c3OB2O)c1 (single isomer, unassigned) [Example 218] | C (C represents a potency between 10 and 30 μM) | 8 to 16 (≈ 11.9 to 23.7 µM) | 32 to 64 (≈ 47.5 to 94.9 µM) | > 128 | > 128 | > 128 | > 128 | > 128 | 32 to 64 (≈ 47.5 to 94.9 µM) | > 128 | > 128 | 0.5 to 1 (≈ 0.741 to 1.48 µM) | 8 to 16 (≈ 11.9 to 23.7 µM) | 30 to 500 | – | – | – | –
2 | NS(=O)(=O)Nc1ccc(F)c([C@@H](NC(=O)N2CCN(CC(F)(F)F)C(=O)C2=O)C(=O)N[C@H]2Cc3cccc(C(=O)O)c3OB2O)c1 (single isomer, unassigned) [Example 219] | D (D represents a potency <10 μM) | 2 to 4 (≈ 2.97 to 5.93 µM) | 8 to 16 (≈ 11.9 to 23.7 µM) | 32 to 64 (≈ 47.5 to 94.9 µM) | 32 to 64 (≈ 47.5 to 94.9 µM) | 32 to 64 (≈ 47.5 to 94.9 µM) | > 128 | > 128 | 2 to 4 (≈ 2.97 to 5.93 µM) | > 128 | 32 to 64 (≈ 47.5 to 94.9 µM) | 0.5 to 1 (≈ 0.741 to 1.48 µM) | 2 to 4 (≈ 2.97 to 5.93 µM) | < 30 | – | – | – | –
3 | NCCN1CCCN(C(=O)N[C@@H](C(=O)N[C@H]2Cc3cccc(C(=O)O)c3OB2O)c2c(F)cc(O)cc2F)C1=O (single isomer, unassigned) [Example 230] | C (C represents a potency between 10 and 30 μM) | 2 to 4 (≈ 3.56 to 7.13 µM) | 32 to 64 (≈ 57 to 114 µM) | 32 to 64 (≈ 57 to 114 µM) | 2 to 4 (≈ 3.56 to 7.13 µM) | – | > 128 | > 128 | > 128 | > 128 | – | – | – | 30 to 500 | > 128 | > 128 | > 128 | > 128
4 | C[C@H]1CN(CCCN)C(=O)C(=O)N1C(=O)NC(C(=O)N[C@H]1Cc2cccc(C(=O)O)c2OB1O)c1ccc(O)c(F)c1F (stereo partly drawn) [Example 243, (3R)-3-(2-((S)-4-(3-aminopropyl)-6-methyl-2,3-dioxopiperazine-1-carboxamido)-2-(2,3-difluoro-4-hydroxyphenyl)acetamido)-2-hydroxy-3,4-dihydro-2H-benzo[e][1,2]oxaborinine-8-carboxylic acid] | D (D represents a potency <10 μM) | 2 to 4 (≈ 3.31 to 6.63 µM) | 8 to 16 (≈ 13.3 to 26.5 µM) | 2 to 4 (≈ 3.31 to 6.63 µM) | 0.5 to 1 (≈ 0.829 to 1.66 µM) | – | > 128 | > 128 | 32 to 64 (≈ 53 to 106 µM) | 32 to 64 (≈ 53 to 106 µM) | – | – | – | – | 32 to 64 (≈ 53 to 106 µM) | 32 to 64 (≈ 53 to 106 µM) | > 128 | 32 to 64 (≈ 53 to 106 µM)

From patent US20230114728A1 (Venatorx Pharmaceuticals, Inc., priority 2019, published 2023)
